Data published in ChEMBL document CHEMBL3612003, “The interaction of 4-thiazolidinone derivatives containing indolin-2-one moiety with P-glycoprotein studied using K562 cell lines” (Eur J Med Chem, 2015).

Experiments:
[1] = molecular target: ATP-dependent translocase ABCB1 (Homo sapiens, UniProt P08183); assay: Inhibition of P-glycoprotein in human drug-resistant K562/ADR cells assessed as reduction in P-gp mediated rhodamine 123 efflux by spectrofluorometry; type: cell-based
[2] = Cytotoxicity against human drug-resistant K562/ADR cells expressing high levels of P-glycoprotein assessed as reduction in cell viability incubated for 48 hrs by SRB assay; type: functional, cell-based
K562 [3] = assay: Resistance index, ratio of IC50 for drug-resistant human K562/ADR cells to IC50 for drug-sensitive human K562 cells; type: functional
K562 [4] = assay: Cytotoxicity against human drug-sensitive K562 cells assessed as reduction in cell viability incubated for 48 hrs by SRB assay; type: functional, cell-based; settings: K562, 48 h

Sequence of ATP-dependent translocase ABCB1 (P08183 whole entry): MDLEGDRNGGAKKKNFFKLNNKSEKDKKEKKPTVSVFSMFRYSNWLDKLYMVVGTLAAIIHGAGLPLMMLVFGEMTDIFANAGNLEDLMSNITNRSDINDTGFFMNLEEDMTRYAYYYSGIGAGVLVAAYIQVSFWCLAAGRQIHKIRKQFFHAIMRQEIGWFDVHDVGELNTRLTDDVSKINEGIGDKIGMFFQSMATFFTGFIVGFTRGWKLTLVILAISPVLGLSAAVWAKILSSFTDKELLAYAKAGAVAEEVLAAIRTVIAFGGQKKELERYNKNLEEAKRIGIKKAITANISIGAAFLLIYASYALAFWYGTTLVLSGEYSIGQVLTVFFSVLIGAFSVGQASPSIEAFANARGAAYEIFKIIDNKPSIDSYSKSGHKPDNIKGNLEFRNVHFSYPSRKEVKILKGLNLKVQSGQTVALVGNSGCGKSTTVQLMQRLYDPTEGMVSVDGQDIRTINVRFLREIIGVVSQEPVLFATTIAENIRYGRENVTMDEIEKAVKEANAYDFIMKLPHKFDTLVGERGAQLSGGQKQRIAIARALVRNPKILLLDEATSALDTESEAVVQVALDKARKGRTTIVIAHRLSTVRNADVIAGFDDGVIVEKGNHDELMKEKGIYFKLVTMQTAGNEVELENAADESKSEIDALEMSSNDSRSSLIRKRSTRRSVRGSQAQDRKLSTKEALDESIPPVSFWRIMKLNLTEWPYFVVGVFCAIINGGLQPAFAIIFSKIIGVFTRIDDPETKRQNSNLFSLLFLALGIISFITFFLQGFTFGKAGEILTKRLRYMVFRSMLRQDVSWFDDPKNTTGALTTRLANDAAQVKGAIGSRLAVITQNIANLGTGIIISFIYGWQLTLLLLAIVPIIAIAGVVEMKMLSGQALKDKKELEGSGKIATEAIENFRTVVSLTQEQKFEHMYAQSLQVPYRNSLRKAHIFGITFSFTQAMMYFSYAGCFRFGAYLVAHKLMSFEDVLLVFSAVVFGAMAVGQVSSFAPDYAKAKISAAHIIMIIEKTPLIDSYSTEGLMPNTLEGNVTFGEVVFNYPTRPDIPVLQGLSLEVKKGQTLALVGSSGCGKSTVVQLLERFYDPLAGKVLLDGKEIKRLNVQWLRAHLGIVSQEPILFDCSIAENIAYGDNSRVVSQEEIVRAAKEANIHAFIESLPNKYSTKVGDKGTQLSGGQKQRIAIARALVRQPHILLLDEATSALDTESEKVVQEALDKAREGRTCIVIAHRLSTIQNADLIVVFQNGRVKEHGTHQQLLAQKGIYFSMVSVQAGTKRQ

SMILES	Ki [1]	IC50 [2]	Ratio IC50 (K562 [3])	IC50 (K562 [4])
CCN(CC)CCCn1c(=O)/c(=C/c2ccc3c(c2)OCO3)s/c1=C1/C(=O)Nc2ccccc21	480 nM	7950 nM	5.53	1440 nM
CCN(CC)CCCn1c(=O)/c(=C/c2cc(OC)c(OC)c(OC)c2)s/c1=C1/C(=O)Nc2cc(F)ccc21	470 nM	1640 nM	1.39	1180 nM
CCN(CC)CCCn1c(=O)/c(=C/c2ccc3c(c2)OCO3)s/c1=C1/C(=O)Nc2ccc(C)cc21	940 nM	5030 nM	2.46	2040 nM
Cc1ccc2c(c1)/C(=c1\s/c(=C\c3ccc(O)cc3)c(=O)n1CCN(C)C)C(=O)N2	> 2230 nM	6800 nM	1.01	6740 nM
Cc1ccc2c(c1)/C(=c1/s/c(=C\c3ccc(O)cc3)c(=O)n1CCN(C)C)C(=O)N2	> 2230 nM	6800 nM	1.01	6740 nM
CCN(CC)CCCn1c(=O)/c(=C/c2ccc(F)c(F)c2)s/c1=C1\C(=O)Nc2ccc(F)cc21	> 2230 nM	6480 nM	0.48	13400 nM
CCN(CC)CCCn1c(=O)/c(=C/c2cc(OC)c(OC)c(OC)c2)s/c1=C1/C(=O)Nc2ccc(C)cc21	320 nM	2020 nM	0.48	4170 nM
CCN(CC)CCCn1c(=O)/c(=C/c2ccc3c(c2)OCO3)s/c1=C1/C(=O)Nc2ccc(F)cc21	> 2230 nM	12500 nM	1.7	7380 nM
CCN(CC)CCCn1c(=O)/c(=C/c2ccc(F)c(F)c2)s/c1=C1/C(=O)Nc2ccc(F)cc21	> 2230 nM	6480 nM	0.48	13400 nM
CCN(CC)CCCn1c(=O)/c(=C/c2ccc3c(c2)OCO3)s/c1=C1\C(=O)Nc2ccc(C)cc21	940 nM	5030 nM	2.46	2040 nM
CCN(CC)CCCn1c(=O)/c(=C/c2ccccc2O)s/c1=C1\C(=O)Nc2ccc(C)cc21	1710 nM	30600 nM	2.07	14800 nM
CCN(CC)CCCn1c(=O)/c(=C/c2cc(OC)c(OC)c(OC)c2)s/c1=C1\C(=O)Nc2ccc(F)cc21	120 nM	2860 nM	1.2	2390 nM
CN(C)CCn1c(=O)/c(=C/c2ccc(O)cc2)s/c1=C1\C(=O)Nc2ccc(F)cc21	1340 nM	6140 nM	4.73	1300 nM
CCN(CC)CCCn1c(=O)/c(=C/c2ccc3c(c2)OCO3)s/c1=C1/C(=O)Nc2cc(F)ccc21	> 2230 nM	2980 nM	1.32	2260 nM
CCN(CC)CCCn1c(=O)/c(=C/c2ccc3c(c2)OCO3)s/c1=C1/C(=O)Nc2ccc(Cl)cc21	1780 nM	5050 nM	1.04	4860 nM
CCN(CC)CCCn1c(=O)/c(=C/c2ccc(F)cc2F)s/c1=C1/C(=O)Nc2cc(F)ccc21	1010 nM	4120 nM	1.12	3690 nM
CCN(CC)CCCn1c(=O)/c(=C/c2cc(OC)c(OC)c(OC)c2)s/c1=C1/C(=O)Nc2ccc(Cl)cc21	220 nM	1650 nM	2.02	820 nM
CN(C)CCn1c(=O)/c(=C/c2ccc(O)cc2)s/c1=C1\C(=O)Nc2ccccc21	> 2230 nM	6160 nM	1.44	4280 nM
CN(C)CCn1c(=O)/c(=C/c2ccc(O)cc2)s/c1=C1/C(=O)Nc2ccccc21	> 2230 nM	6160 nM	1.44	4280 nM
CCN(CC)CCCn1c(=O)/c(=C/c2ccc3c(c2)OCO3)s/c1=C1\C(=O)Nc2cc(F)ccc21	> 2230 nM	2980 nM	1.32	2260 nM

SMILES	Ki [1]	IC50 [2]	Ratio IC50 (K562 [3])	IC50 (K562 [4])
CCN(CC)CCCn1c(=O)/c(=C/c2cc(OC)c(OC)c(OC)c2)s/c1=C1\C(=O)Nc2ccc(C)cc21	320 nM	2020 nM	0.48	4170 nM
CCN(CC)CCCn1c(=O)/c(=C/c2ccc(O)cc2)s/c1=C1/C(=O)Nc2ccc(Cl)cc21	> 2230 nM	48800 nM	1.98	24600 nM
CN(C)CCn1c(=O)/c(=C/c2ccc(O)cc2)s/c1=C1\C(=O)Nc2cc(F)ccc21	> 2230 nM	7160 nM	1.28	5590 nM
CCN(CC)CCCn1c(=O)/c(=C/c2cc(OC)c(OC)c(OC)c2)s/c1=C1\C(=O)Nc2ccc(Cl)cc21	220 nM	1650 nM	2.02	820 nM
CCN(CC)CCCn1c(=O)/c(=C/c2cc(OC)c(OC)c(OC)c2)s/c1=C1\C(=O)Nc2cc(F)ccc21	470 nM	1640 nM	1.39	1180 nM
COc1cccc2c1C(=O)c1c(O)c3c(c(O)c1C2=O)C[C@@](O)(C(=O)CO)C[C@@H]3O[C@H]1C[C@H](N)[C@H](O)[C@H](C)O1 [DOXORUBICIN]			6.75	
CCN(CC)CCCn1c(=O)/c(=C/c2cc(OC)c(OC)c(OC)c2)s/c1=C1\C(=O)Nc2ccccc21	730 nM	6650 nM	2.58	2580 nM
CCN(CC)CCCn1c(=O)/c(=C/c2cc(OC)c(OC)c(OC)c2)s/c1=C1/C(=O)Nc2ccccc21	730 nM	6650 nM	2.58	2580 nM
CCN(CC)CCCn1c(=O)/c(=C/c2ccc(F)cc2F)s/c1=C1\C(=O)Nc2cc(F)ccc21	1010 nM	4120 nM	1.12	3690 nM
CN(C)CCn1c(=O)/c(=C/c2ccc3c(c2)OCO3)s/c1=C1\C(=O)Nc2ccccc21	> 2230 nM	780 nM	0.59	1320 nM
CN(C)CCn1c(=O)/c(=C/c2ccc(O)cc2)s/c1=C1/C(=O)Nc2ccc(F)cc21	1340 nM	6140 nM	4.73	1300 nM
CCN(CC)CCCn1c(=O)/c(=C/c2ccc3c(c2)OCO3)s/c1=C1\C(=O)Nc2ccc(Cl)cc21	1780 nM	5050 nM	1.04	4860 nM
CN(C)CCn1c(=O)/c(=C/c2ccc3c(c2)OCO3)s/c1=C1/C(=O)Nc2ccccc21	> 2230 nM	780 nM	0.59	1320 nM
CCN(CC)CCCn1c(=O)/c(=C/c2ccccc2O)s/c1=C1/C(=O)Nc2ccc(C)cc21	1710 nM	30600 nM	2.07	14800 nM
CCN(CC)CCCn1c(=O)/c(=C/c2ccc3c(c2)OCO3)s/c1=C1\C(=O)Nc2ccccc21	480 nM	7950 nM	5.53	1440 nM
CCN(CC)CCCn1c(=O)/c(=C/c2cc(OC)c(OC)c(OC)c2)s/c1=C1/C(=O)Nc2ccc(F)cc21	120 nM	2860 nM	1.2	2390 nM
CN(C)CCn1c(=O)/c(=C/c2ccc(O)cc2)s/c1=C1/C(=O)Nc2cc(F)ccc21	> 2230 nM	7160 nM	1.28	5590 nM
CCN(CC)CCCn1c(=O)/c(=C/c2ccc3c(c2)OCO3)s/c1=C1\C(=O)Nc2ccc(F)cc21	> 2230 nM	12500 nM	1.7	7380 nM
CCN(CC)CCCn1c(=O)/c(=C/c2ccc(O)cc2)s/c1=C1\C(=O)Nc2ccc(Cl)cc21	> 2230 nM	48800 nM	1.98	24600 nM
